Patent publication US20260072027A1, “Peptides And Method” (Queen Mary University of London, priority 2022, published 2026)
Several values for one entry are separate records, joined by “and”; a condition that tells them apart may be missing. Equal entries are not always repeated. Entries after “also recorded” stand apart in the source; their conditions may differ. Where no end group is shown, it is not given here.

Key:
[1] = system: CD4+ and CD8+ T-cells and IgG autoantibodies; test: Overlap of CD4+, CD8+ and IgG antibody responses (Venn analysis); format: cell-based, human; settings: type 1 diabetes; for patients with overlapping (concordant) CD4+ and CD8+ responses to the peptide: Study cohort 2, SI >1
Source text: FIG. 13. Venn diagrams of CD4^+, CD8^+ and antibody response to oxPTM-INSPs. Panels a, b, and c show the overlap between IgG autoantibody and T-cell (CD4^+ and CD8^+) responses specific to oxPTM-INSP-3 (a), Nt-INSP-4 (b) and oxPTM-INSP-6 (c). Panels d, e, and f display the overlap between T-cell responses to the three insulin peptides and IgG to oxPTM-INS modified by hydroxyl radical (^●OH-INS). […] There is concordance between reactivity to oxPTM-INS and CD4^+ and CD8^+ reactivity for all three tested peptides (7/17, 8/18 and 8/18 for oxPTM-INSP-3, Nt-INSP-4 and oxPTM-INSP-6, respectively). The stimulatory index >1 was used for definition of positive T-cell response.
Correlation between T-cell stimulation and antibody response. Subjects evaluated for T-cell stimulation were also tested for antibody reactivity to either oxPTM-INSPs or oxidised intact insulin (oxPTM-INS) to assess correlations between humoral and cellular responses (FIG. 11-e-f). In study cohort 2, antibody reactivity to oxPTM-INSP-6 was the highest as observed in the study cohort 1, with 11/18 (61.1%) binding to at least one oxPTM-INSP-6 derivatives (p<0.001 oxPTM-INSP-6 vs. Nt-INSP-6). Detailed analysis of autoantibody response in this cohort is described in the ESM (ESM results Antibody binding to oxPTM-INSPs in Study cohort 2).
We then analysed the extent of correlation between CD4^+, CD8^+ and IgG antibody responses. […] The CD4^+ T cell response to Nt-INSP-4 frequently overlapped with CD8^+ (13/18 [72.2%]), and to a lesser extent to antibodies (7/18 [38.8%]). […] CD4^+ response to oxPTM-INSP-6 was linked to both CD8^+ and/or antibodies: […] patients had concordant CD4^+ and CD8^+ responses, while 9/18 (50%) patients had concordant CD4^+ and antibody responses. […] CD4^+ T-cell stimulation to Nt-INSP-4, oxPTM-INSP-6 and oxPTM-INSP-3 was associated with antibody reactivity to oxPTM-INS in 8/18 (44.4%), 8/18 (44.4%) and 7/18 (38.9%) type 1 diabetes patients.

[2] = system: autoantibodies to oxPTM-INS; test: Competitive displacement ELISA, plate coated with oxidised insulin; format: binding, human; settings: for inhibition of type 1 diabetes serum binding to oxPTM-INS (in words): sera pre-incubated with peptide competitor
Experimental: A competitive displacement assay was performed to map the exact epitope, namely the exact amino acid sequence binding specificities and to test the binding to native peptides versus oxidised insulin peptides. The binding to the peptide was done by direct ELISA on the native or modified peptides or by competition ELISA. Initially native synthetic peptide was oxidised by exposing to 0.05 mM CuCl2; 90 mM H2O2; 10 mM NaOCl. Native and modified peptides were fractionated by AKTA to evaluated changes in molecular profile. AKTA fractions were then tested by ELISA for reactivity (FIGS. 2 and 3). We next perform competition ELISA with the native peptides and peptides exposed to 0.05 mM CuCl2; 90 mM H2O2; 10 mM NaOCl. Serum samples were pre-incubated with either native insulin peptides or oxidised insulin peptides. Finally, based on the amino acid sequence of the identified peptides we predicted the amino acids that would be oxidised by ^●OH and HOCl and designed synthetic peptides that contain the oxidised amino acids in the synthesis. Synthetic peptides were produced by standard commercially available methods, specifically by Peptide Protein Research Ltd. Briefly, peptide synthesis was performed by automated solid phase peptide synthesis (SPPS), which was followed by purification. Each individual amino acid was added to the growing chain according to the sequence. Where specified, dihydroxyphenylalanine was added to replace Tyr or cysteate were added to replace Cys. Similarly, these peptides were tested by competition ELISA. The table below describe the different competition ELISA performed:
Serum samples from children with type 1 diabetes were pre-incubated with the synthetic peptides before they were added to the native insulin or oxidised that were previously coated on the ELISA plate. If the antibodies in the serum sample bind to the peptide they will no longer bind to the insulin or oxidised insulin on the plate-competition ELISA. 1:200 dilutions of serum samples from T1D serum samples were pre-incubated for 2 hr at room temperature with the various peptides as shown in the table above. After incubation, serum/peptide mix was added to the ELISA plate previously coated overnight with either native insulin or oxidised insulin for an additional 2 hr incubation. Plates were then washed in a plate washer three times with PBS 0.05% tween. After washing, 100 ul of anti-human IgG diluted 1:1000 in 1% milk-PBS 0.05% tween were added for additional 1 hour and 30 min incubation. After washing, ELISA was developed by adding 100 ul of TMB (10 mg/ml in DMSO) in 10 ml of 0.1 M sodium acetate plus 2 ul of H2O2. Reaction was stopped by adding 0.5 M H2SO4 (usually 20 min for insulin ELISA).
To assess the binding specificity of serum samples to identified peptides, a competitive ELISA was performed. The ELISA was carried out following the method described above, except that the serum samples were pre-incubated for 2 h with and without 10 μg/ml peptides as competitors, before adding the serum samples to the insulin coated ELISA plate.

Substance	concordance between reactivity to oxPTM-INS and CD4+ and CD8+ reactivity (patients/patients) ([1]; Study cohort 2)	patients with CD4+ T-cell stimulation associated with antibody reactivity to oxPTM-INS ([1]; Study cohort 2)	patients with CD4+, CD8+ T-cells to the peptide and autoantibodies to oxPTM-INS simultaneously ([1]; Study cohort 2)	patients with concordant CD4+ and antibody responses to the peptide ([1]; Study cohort 2)	patients with concordant CD4+, CD8+ and IgG antibody response to the peptide ([1]; Study cohort 2)	patients with overlapping (concordant) CD4+ and CD8+ responses to the peptide [1]	inhibition of type 1 diabetes serum binding to oxPTM-INS (in words) ([2]; listed as Nt-INSP-4)	inhibition of type 1 diabetes serum binding to oxPTM-INS (in words) [2]	reduced binding to oxidised whole insulin ([2]; type 1 diabetes sera pre-incubated with peptide, listed as Oxidised peptide 3)
LVEALYLVCGERGFFYTPKT [insulin B:11-30 native peptide]	8/18	44.4%	27.8%	38.8%	22.2%	72.2%	comparable inhibition as oxPTM-INSP-4; also recorded: comparable inhibition compared to oxPTM-INSP-4; also recorded: blocked type 1 diabetes serum binding to oxPTM-INS like oxPTM-INSP-4	–	–
oxPTM-INSP-3: oxidised forms of insulin peptide 3 (A:12-21), in house oxidised or in silico derivatives (SLYQLENYCN; not fully specified (N-terminus); also: oxidised forms, in house oxidised or in silico derivatives, modified residues not defined)	7/17	38.9%	22.2%	–	5.5%	50.0%	–	strongly inhibited binding to oxPTM-INS; also recorded: able to inhibit the binding	35-80% and 40-80%
